Some test systems named below: A498 renal; COLO 205 colon; HCT-15 colon; HOP-62 NSCLC; IGROV1 ovarian; NCI-H226 lung; NCI-H522 lung; SNB-19 CNS; SW-620 colon.
Experiment in all cases: DTP human tumour cell line panel, 48 h

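Compound exposure: 48 hours, 5 concentrations, 96-well plates. GI50: concentration for 50% inhibition of growth. TGI: concentration producing complete growth inhibition.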

As usually defined, the GI50 is the concentration that inhibits growth by half. Usually TGI stands for the concentration at which net growth stops. The low end stands for more potent growth arrest, the high end for less potent growth arrest.

For the compound `CCC[CH2][Sn]1([CH2]CCC)[O]C(c2ccccn2)S(=O)(=O)[O]1` (centres undefined), the GI50 was 18.1 µM in the assay on A498 renal; 2.1 µM with COLO 205 colon; 1.79 µM in the assay with HCT-15 colon; 28.1 µM in the assay with HOP-62 NSCLC; 6.47 µM with IGROV1 ovarian; 16.2 µM in the assay with NCI-H226 lung. The results for the GI50 in the assay with NCI-H522 lung, in the assay on SNB-19 CNS and in the assay with SW-620 colon were 1.18 µM, 11.4 µM and 1.56 µM, respectively. Further, the TGI is 32.1 µM with A498 renal; 4.54 µM in the assay with COLO 205 colon; 3.5 µM with HCT-15 colon; 43 µM in the assay with HOP-62 NSCLC; 20.3 µM with IGROV1 ovarian; 30 µM with NCI-H226 lung. For the same compound, the concentration for total growth inhibition (TGI) is 2.47 µM in the assay on NCI-H522 lung, 23.5 µM in the assay with SNB-19 CNS and 3.02 µM in the assay on SW-620 colon.

As for `CCOC(=O)C12CCCC1(O)N(NC(=O)c1cccc(Cl)c1)C(C)=C2C(=O)OC` (centres undefined), the TGI with A498 renal, in the assay with HCT-15 colon, in the assay with HOP-62 NSCLC, with IGROV1 ovarian, with NCI-H226 lung and in the assay with NCI-H522 lung was greater than 100 µM throughout. In addition, the total growth inhibition concentration (TGI) in the assay on SNB-19 CNS and in the assay with SW-620 colon was greater than 100 µM in each case.

As to `CSc1ccc(-c2cn3ccsc3n2)c(O)c1`, the TGI was greater than 100 µM in the assay with A498 renal; greater than 62.7 µM in the assay on COLO 205 colon; greater than 55.8 µM in the assay with HCT-15 colon; greater than 100 µM in the assay on HOP-62 NSCLC; greater than 100 µM in the assay on IGROV1 ovarian; greater than 100 µM with NCI-H226 lung. Further, the TGI in the assay on NCI-H522 lung was greater than 100 µM; in the assay with SNB-19 CNS, greater than 100 µM; with SW-620 colon, greater than 55.1 µM.

Regarding `O=C(O)/C(Cl)=C(\Cl)Nc1cccc(C(F)(F)F)c1`, the TGI in the assay on COLO 205 colon, with HCT-15 colon, in the assay on HOP-62 NSCLC, in the assay on IGROV1 ovarian and with SW-620 colon was greater than 100 µM in each case.

Take `COC(=O)C1=CC(O)CCC1c1ccc(OC)cc1` (centres undefined): the TGI in the assay on A498 renal, with COLO 205 colon, in the assay on HCT-15 colon, in the assay on HOP-62 NSCLC, with IGROV1 ovarian and in the assay on NCI-H226 lung was greater than 100 µM throughout. Further, the TGI in the assay on NCI-H522 lung, with SNB-19 CNS and in the assay with SW-620 colon was greater than 100 µM throughout.

Turning to `CC[O-].CC[O-].[O-]c1ccccc1C=Nc1ccccc1.[O-]c1ccccc1C=Nc1ccccc1.[Ti+4]`, the GI50 in the assay on COLO 205 colon was 96.8 µM; in the assay with HOP-62 NSCLC it was greater than 100 µM; in the assay with IGROV1 ovarian it was greater than 100 µM; in the assay on NCI-H226 lung, greater than 100 µM; in the assay on SNB-19 CNS it was greater than 100 µM; in the assay with SW-620 colon, 9.24 µM. In addition, the TGI in the assay with COLO 205 colon, with HOP-62 NSCLC, with IGROV1 ovarian, in the assay with NCI-H226 lung, in the assay on SNB-19 CNS and with SW-620 colon was greater than 100 µM in each case.

As to `COC1=CC(=O)c2ccc(C(C)C)cc2C1(C)C1=NC(C)(C)CO1` (centres undefined), the TGI in the assay on COLO 205 colon, with HCT-15 colon, with HOP-62 NSCLC, in the assay with IGROV1 ovarian, with NCI-H226 lung and with NCI-H522 lung was greater than 100 µM throughout. For the same compound, the TGI in the assay on SNB-19 CNS and in the assay on SW-620 colon was greater than 100 µM in each case.

Regarding `C/C(=N\O)c1sc(-n2nc(-c3ccccc3)cc2-c2ccccc2)nc1C`, the TGI with A498 renal was greater than 31.6 µM; with HCT-15 colon it was 22.9 µM; in the assay with HOP-62 NSCLC, 22.2 µM; in the assay on IGROV1 ovarian, 22 µM; with NCI-H226 lung, 17.6 µM; in the assay on NCI-H522 lung it was 17 µM. The TGI in the assay on SNB-19 CNS stood at 17.9 µM; in the assay on SW-620 colon it was 19.6 µM.

Turning to `COc1ccccc1/C=C/C(=O)c1sc(-c2cccnc2)nc1C`, the TGI in the assay on A498 renal, with COLO 205 colon, in the assay on HCT-15 colon, with HOP-62 NSCLC, with IGROV1 ovarian and in the assay with NCI-H226 lung was greater than 100 µM throughout. The TGI with NCI-H522 lung and in the assay on SW-620 colon was greater than 100 µM throughout.

Take `CCCC(OCC)(OCC)OCC`: the TGI in the assay on A498 renal, with COLO 205 colon, with HCT-15 colon, in the assay with HOP-62 NSCLC, in the assay with IGROV1 ovarian and with NCI-H226 lung was greater than 100 µM in each case. Further, the TGI with NCI-H522 lung and in the assay with SNB-19 CNS was greater than 100 µM throughout.

With `CC(=O)[CH-]C(=O)c1ccccc1.CC(=O)[CH-]C(=O)c1ccccc1.O=C([O-])C[O-].O=C([O-])C[O-].[Ti+4]`, the GI50 was greater than 100 µM with A498 renal; 30.9 µM with HCT-15 colon; 58.7 µM in the assay with HOP-62 NSCLC; greater than 100 µM with IGROV1 ovarian; 19.4 µM with NCI-H226 lung; 17.5 µM with NCI-H522 lung. Besides, the results for the GI50 in the assay on SNB-19 CNS and with SW-620 colon were 30.8 µM and 53.8 µM, respectively. Besides, the TGI is greater than 100 µM in the assay with A498 renal; greater than 100 µM in the assay with HCT-15 colon; greater than 100 µM with HOP-62 NSCLC; greater than 100 µM in the assay with IGROV1 ovarian; 73 µM in the assay on NCI-H226 lung; 70.5 µM in the assay with NCI-H522 lung. In addition, the TGI in the assay on SNB-19 CNS and with SW-620 colon was greater than 100 µM each time.

As for `COc1ccc2[nH]c3c4c(c5cc(C(C)(C)C)ccc5c3c2c1)C(=O)N(c1ccccc1)C4=O`, the TGI in the assay with A498 renal is 61.6 µM; in the assay on COLO 205 colon it was greater than 100 µM; in the assay with HOP-62 NSCLC, greater than 100 µM; in the assay on IGROV1 ovarian, greater than 100 µM; in the assay with NCI-H226 lung, greater than 100 µM; in the assay on NCI-H522 lung it was greater than 100 µM. The TGI in the assay with SNB-19 CNS and in the assay with SW-620 colon was greater than 100 µM each time.

For `CCOC(=O)C1Cc2c(ccc(OC)c2OC)C(=O)C1N` (centres undefined), the TGI in the assay with COLO 205 colon, in the assay on HCT-15 colon, in the assay on HOP-62 NSCLC, in the assay on IGROV1 ovarian, with NCI-H226 lung and in the assay with NCI-H522 lung was greater than 100 µM in each case. Also, the TGI in the assay with SNB-19 CNS and in the assay with SW-620 colon was greater than 100 µM each time.

For the compound `CC(=O)O[C@H](C[C@H](C(C)C)N(C)C(=O)[C@@H](NC(=O)[C@H]1CCCCN1C)C(C)C)c1nc(C(=O)N[C@@H](Cc2ccccc2)C[C@H](C)C(=O)O)c(C)s1`, the GI50 is less than 0.0025 µM with A498 renal; less than 0.0025 µM in the assay with COLO 205 colon; 0.00385 µM in the assay on HCT-15 colon; less than 0.0025 µM with HOP-62 NSCLC; 0.00302 µM with IGROV1 ovarian; less than 0.0025 µM in the assay on NCI-H522 lung. For the same compound, the GI50 in the assay on SNB-19 CNS and with SW-620 colon was less than 0.0025 µM throughout. For the same compound, the TGI in the assay with A498 renal is less than 0.0025 µM; with COLO 205 colon, 0.00595 µM; in the assay with HCT-15 colon, greater than 25 µM; in the assay with HOP-62 NSCLC, greater than 25 µM; in the assay with IGROV1 ovarian it was greater than 25 µM; in the assay on NCI-H522 lung it was greater than 25 µM. In addition, the TGI in the assay with SNB-19 CNS and in the assay with SW-620 colon was greater than 25 µM each time.

Take `COc1cc(C(=O)C/C(CCC(=O)Nc2ccccc2[N+](=O)[O-])=N\NC(=O)C(N)=O)ccc1O`: the TGI with COLO 205 colon, with HCT-15 colon, in the assay on HOP-62 NSCLC, in the assay with IGROV1 ovarian, in the assay on NCI-H226 lung and in the assay on SNB-19 CNS was greater than 100 µM each time. The compound also showed a TGI with SW-620 colon greater than 100 µM.

For `CCOC(=O)/C(=C/c1ccc(OC)c(OC)c1)C(=O)c1ccccc1`, the TGI in the assay on A498 renal was determined as 46.5 µM; in the assay on COLO 205 colon it was 31.1 µM; with HCT-15 colon, 42 µM; in the assay on HOP-62 NSCLC, 35.6 µM; with IGROV1 ovarian it was 51.4 µM; with NCI-H522 lung it was 29.1 µM. Besides, the values for the TGI with SNB-19 CNS and with SW-620 colon were 30.1 µM and 48.5 µM, respectively.

`CCCCCCCCCOC(=S)NC`: the TGI was 48.8 µM in the assay with A498 renal; 49.2 µM with COLO 205 colon; 36.1 µM with HCT-15 colon; 63.7 µM in the assay with IGROV1 ovarian; 31.2 µM in the assay on NCI-H522 lung; greater than 100 µM in the assay on SNB-19 CNS. The compound further showed a concentration for total growth inhibition (TGI) with SW-620 colon of 40.9 µM.

For `COc1cc2[nH]c(C(=O)c3cc(OC)c(OC)c(OC)c3)c(N)c2cc1C#CCO`, the GI50 in the assay with A498 renal was 0.23 µM; in the assay on COLO 205 colon, 0.268 µM; in the assay on HCT-15 colon it was 0.432 µM; in the assay on HOP-62 NSCLC, 0.322 µM; with IGROV1 ovarian it was 0.795 µM; in the assay on NCI-H226 lung, 0.752 µM. The values for the GI50 in the assay with SNB-19 CNS and with SW-620 colon were 0.41 µM and 0.294 µM, respectively. For the same compound, the TGI in the assay with A498 renal was 2.14 µM; in the assay on COLO 205 colon, 0.842 µM; in the assay with HCT-15 colon, greater than 100 µM; in the assay on HOP-62 NSCLC, greater than 100 µM; in the assay with IGROV1 ovarian it was 68.8 µM; in the assay with NCI-H226 lung, greater than 100 µM. The TGI with SNB-19 CNS and in the assay with SW-620 colon was greater than 100 µM throughout.

For `Cc1nc(NC(=S)NC(=O)c2ccc(Cl)c(Cl)c2)sc1C(=O)/C=C/c1ccccc1[N+](=O)[O-]`, the TGI with COLO 205 colon was determined as 34.9 µM; in the assay on HCT-15 colon, 51 µM; with HOP-62 NSCLC, 47.9 µM; with IGROV1 ovarian, 66.7 µM; in the assay on NCI-H522 lung, 33.7 µM; in the assay on SNB-19 CNS, 46.9 µM. Further, the TGI in the assay with SW-620 colon was 41.2 µM.

Turning to `CC1=CC(=O)C(C)(C2=NC(C)(C)CO2)c2ccccc21` (centres undefined), the TGI in the assay on COLO 205 colon, in the assay with HCT-15 colon, with HOP-62 NSCLC, in the assay on IGROV1 ovarian, in the assay on NCI-H226 lung and with NCI-H522 lung was greater than 100 µM each time. For the same compound, the TGI with SNB-19 CNS and in the assay with SW-620 colon was greater than 100 µM throughout.

Values taken from PubChem BioAssay (NCI).
